Test results as given in patent publication US20210032806A1, “ANTIMICROBIAL FABRIC TREATMENT” (The Procter & Gamble Company, priority 2019, published 2021).
In brackets after ≈: the same amount, converted by molar mass.

Key:
Type in all cases: cell-based
[1] = tested on: Staphylococcus aureus (S. aureus—ATCC #6538); assay: Minimum Biocidal Concentration (MBC) in suspension, S. aureus; conditions: 6 minutes contact time, 5% horse serum soil load
Description: (§1) The antimicrobial efficacy of the antimicrobial agent in the aqueous liquor is determined by measuring its Minimum Biocidal Concentration (MBC). The MBC is defined as the lowest absolute concentration of the particular antimicrobial active which provides complete kill (zero bacterial growth). The MBC of the bispyridinium alkane antimicrobial active is determined against the bacterium, Staphylococcus aureus (S. aureus—ATCC #6538), a gram positive bacterium, and against Escherichia coli (E. coli ATCC #8739) these microorganisms are representative of natural contaminants in many consumer and industrial applications. The bacteria inoculum is prepared by transferring several colonies from a Tryptone Soy Agar (TSA) plate to a saline solution (0.85% NaCl) comprising 5% of horse serum as additional soil load, the bacteria concentration in this saline solution is determined by measuring the % Transmittance at 425 nm and adjusted by either adding more bacteria or more saline solution until the % Transmittance at 425 nm is between 23-25% for S. aureus and 31-33% for E. coli. These % Transmittance values correspond to a bacteria concentration of 10^8 CFU/ml.
(§2) The antimicrobial agent was added to the aqueous liquor to be used in the method of the present invention at a level of 200 ppm, or 100 ppm or 50 ppm. 200 μL of the antimicrobial aqueous liquor was dosed into one well of row A of a 96 well microtiter plate. Each subsequent well (rows B to G) were dosed with 100 μL of the same aqueous liquor, without the addition of the antimicrobial agent. 100 μL of the antimicrobial aqueous liquor was transferred from row A to row B and mixed. 100 μL of the antimicrobial aqueous liquor was then transferred from row B to row C and mixed, and the process repeated to row G. As such, the concentration of the antimicrobial agent underwent two-fold dilution in adjacent wells, while the concentration of any adjunct present in the aqueous liquor remained constant across all the wells in the same column.
10 μL of the 10^8 CFU/ml bacteria suspension in saline was added to wells A to F of the microtiter plate with row G kept as a nil bacteria control. The final volume in each well was 110 μL, except for row G which comprised 100 μL of the hard surface cleaning composition and no bacteria suspension. Bacterial inoculation to each column was staggered by 30 seconds to allow for equal incubation times in all wells so that the contact time between the bacteria and the antimicrobial active for all samples was 6 mins. After this contact time, 10 μL of each test solution was transferred to 90 μL of neutraliser solution (Modified Letheen Broth+1.5% Polysorbate 80, supplied by BioMérieux) to stop the antimicrobial action of the antimicrobial active matching the stagger of the inoculation. 2 μL of this solution was plated onto a TSA plate matching the stagger of the inoculation so that all samples are exposed to the neutralizer for the same period of time. The plate is incubated at 32.5° C. for 24-48 h for S. aureus, and 24 h for E. coli. MBC concentration is taken as the lowest concentration of the antimicrobial active at which no visible colony growth is observed on the TSA plate.
(§3) The antibacterial efficacy of the bispyridinium alkane octenidine hydrochloride was compared to that of N-(3-aminopropyl)-N-dodecylpropane-1,3-diamine (Lonzabac 12.30-Lonza) and n-alkyl dimethyl benzyl ammonium chloride/n-alkyl dimethyl ethylbenzyl ammonium chloride (BTC2125-Stepan) in different aqueous liquors. The minimal biocidal concentration (MBC) in suspension of each antibacterial active against a gram positive bacterium (Staphylococcus aureus) and a gram negative bacterium (Escherichia coli) was determined after 6 minutes contact time.

[2] = tested on: Escherichia coli (E. coli ATCC #8739); assay: Minimum Biocidal Concentration (MBC) in suspension, E. coli; conditions: 6 minutes contact time, 5% horse serum soil load; for MBC: Escherichia coli, ATCC8739, 0.1 h
Description: as §1, §2
10 μL of the 10^8 CFU/ml bacteria suspension in saline was added to wells A to F of the microtiter plate with row G kept as a nil bacteria control. […]
as §3

[3] = tested on: Staphylococcus aureus (S. aureus—ATCC #6538); assay: Antibacterial efficacy on cotton fabrics; conditions: cotton fabric, 625 ppm active in liquor with 3750 ppm C12-C14 EO7, 1 h contact; for Number of bacteria recovered from treated fabrics: nil AB reference 9.1 × 10^5 CFU/ml
Description: The bactericidal efficacy on fabric surfaces of treatments with antimicrobial aqueous liquors comprising different antimicrobial agents was determined against the bacterium Staphylococcus aureus (S. aureus—ATCC #6538). The bacteria inoculum was prepared by transferring several colonies from a Tryptone Soy Agar (TSA) plate to a saline solution (0.85% NaCl) comprising 5% horse serum as additional soil load, the bacteria concentration in this saline solution was determined by measuring the % Transmittance at 425 nm and adjusted by either adding more bacteria or more saline solution until the % Transmittance at 425 nm is between 23-25% which corresponds to a bacteria concentration of 10^8 CFU/ml.
Fabric carriers, 1 cm×1 cm disks of cotton sterilized by autoclaving, were inoculated with 30 μL of the 10^8 CFU/ml bacteria inoculum and incubated for 20 mins at 32° C. After this incubation period, 3 fabric carriers were placed within bundles of 10 clean sterile cotton disks and secured by placing a sterile 30 mm paperclip to the edge of the bundle. The fabric bundles were placed in 30 ml of antimicrobial aqueous liquors to be used in the method of the present invention comprising 3750 ppm of C12-C14 EO7 alkyl ethoxylate non ionic surfactant and 625 ppm of either bispyridinium alkane (octenidine dihydrochloride), N-(3-aminopropyl)-N-dodecylpropane-1,3-diamine (Lonzabac 12.30) or benzalkonium chloride (Sigma-Aldrich CAS number 63449-41-2) as antimicrobial actives. The contact time between the bacteria in the fabric carriers and the antimicrobial aqueous liquor was 1 h. After this contact time, each fabric bundle was rinsed for 5 minutes with water and the 3 fabric carries transferred to 9 ml of neutralizer solution (Modified Letheen Broth+1.5% Polysorbate 80, supplied by BioMérieux) to stop the antimicrobial action of the antimicrobial active. The neutralizer tube containing the fabric carriers was vortexed in a Genie 2 vortexer set at speed 7 for 30 seconds. Ten-fold dilutions of the neutralizer+fabric carrier solution were prepared by transferring 1 ml of the neutralizer solution to 9 ml of neutralizer solution, this solution was further diluted in neutralizer solution following the same protocol so that serial ten-fold dilutions were obtained. 100 μL of each of the serial dilutions were plated on a TSA plate, plates were incubated at 32° C. for 18 hours, after this incubation time, the number of colonies in each plate was counted. The target dilution used to determine the bactericidal efficacy of aqueous liquor of the method of the present invention was the one delivering 30-300 CFU in the plate, the data reported for each antimicrobial active is the average of the bacteria number in three plates multiplied by the target dilution. The log reduction for each antibacterial treatment vs nil antibacterial active reference is the log 10 of the number obtained by dividing the number of colonies recovered from the fabrics treated with the nil antibacterial reference aqueous liquor by the number of colonies recovered from the fabrics treated with aqueous liquors comprising the different antimicrobial actives.
Cotton fabrics inoculated with bacteria were treated for 1 hour with aqueous liquors comprising 3750 ppm of C12-C14 EO7 alkyl ethoxylate non ionic surfactant and either no antibacterial active (ref) or 625 ppm of octenidine hydrochloride, 625 ppm of Lonzabac 12.30 or 625 ppm of benzalkonium chloride as antibacterial actives. After the treatment, the bacteria remaining on the treated fabrics were extracted and quantified. It can be seen that the treatment done with the aqueous liquor comprising octenidine hydrochloride provides better antibacterial efficacy, i.e. less bacteria remaining on fabrics, and higher log reduction, than the treatments done with aqueous liquors comprising either Lonzabac or benzalkonium chloride.

[4] = aqueous liquor 2: Octyliminodipropionate (Ampholak YJH 40) 0.1%
[5] = aqueous liquor 3: C12-C14 EO7 alcohol ethoxylate 0.1%
[6] = aqueous liquor 5: Sodium lauroamphohydroxypropylsulfonate (Miranol JS) 0.0062%
[7] = aqueous liquor 7: Octyliminodipropionate (Ampholak YJH 40) 0.0062%
[8] = aqueous liquor 8: C12-C14 EO7 alcohol ethoxylate 0.0062%

| Compound | MBC ([1]; Staphylococcus aureus, ATCC6538, 0.1 h, aqueous liquor 1: deionized water) [µg/mL] | MBC S. aureus [1, 4] [ppm] | MBC S. aureus [1, 5] [ppm] | MBC S. aureus ([1]; aqueous liquor 4: Disodium capryloamphodiacetate (Mackam 2CY75) 0.025%) [ppm] | MBC S. aureus [1, 6] [ppm] | MBC [2, 7] [µg/mL] | MBC [2, 8] [µg/mL] | Log reduction vs treatment with nil AB active reference [3] | Number of bacteria recovered from treated fabrics [3] | MBC S. aureus ([1]; aqueous liquor 1: deionized water) [ppm] | MBC E. coli [2, 7] [ppm] | MBC E. coli [2, 8] [ppm] |
| --- | --- | --- | --- | --- | --- | --- | --- | --- | --- | --- | --- | --- |
| CCCCCCCCCCCCN(CCCN)CCCN [Lonzabac 12.30, N-(3-aminopropyl)-N-dodecylpropane-1,3-diamine] | 25 (≈ 83.5 µM) | 25 | 25 | 25 | 25 | 50 (≈ 167 µM) | 25 (≈ 83.5 µM) | Log 0.7 | 1.9 × 10^5 CFU/ml | – | – | – |
| benzalkonium chloride | – | – | – | – | – | – | – | Log 1.2 | 5.8 × 10^4 CFU/ml | – | – | – |
| CCCCCCCCN=c1ccn(CCCCCCCCCCn2ccc(=NCCCCCCCC)cc2)cc1.Cl.Cl [Octenidine, octenidine dihydrochloride] | – | 3.125 | 6.25 | – | 3.125 | – | – | Log 2.5 | 2.8 × 10^3 CFU/ml | 3.125 | 3.125 | 6.25 |
